In US6900198B2, “Synthetic catalytic free radical scavengers useful as antioxidants for prevention and therapy of disease” (Eukarion, Inc., priority 1995, dated 2005):

Key:
[1] = test system: Human dermal fibroblasts (HF cells); assay: Protection against t-butyl hydroperoxide toxicity in human fibroblasts (XTT); format: cell-based; details: 80 μM with 0.5 mM t-BHP
Procedure: (§1) Human dermal fibroblasts (HF cells) were obtained from the American type tissue Culture Collection at passage 1 and cultured and propagated in a medium (HF medium) consisting of Dulbecco's Modified Eagle's Medium with 4.5 g/l D-glucose, 10% calf serum 4 mM glutamine, 50 units/ml penicillin, and 50 μg/ml streptomycin in a 37° C. humidified incubator equilibrated with 5% CO2. Cells were used at passages 5 or 6 for experiments. For cell protection assays, HF cells were seeded at a density of about 15,000 cells per cm2 onto 96-well culture plates and allowed to grow to confluence. […] After 2 hr., the absorbance at 490 nm was measured in a BioRad (Richmond, Calif.) Model 3550 plate-reader, using a reference wavelength of 655 nm. […] Absorbance measurements for blank wells, containing HF medium and XTT reagent but no cells, were also determined. […] Fresh HF medium was then added and cell viability assessed using the XTT reagent as described above. […]
Cell protection assays were performed as described under Experimental Procedures with salen-manganese complexes administered at the indicated concentrations and t-BHP at 0.5 mM. Cell viability was assessed using the XTT reagent as described and is expressed as the absorbance at 490 nm uncorrected for blank. […]

[2] = test system: Human dermal fibroblasts (HF cells); assay: Protection against glucose and glucose oxidase toxicity in human fibroblasts (XTT); format: cell-based; details: glucose oxidase 0.019 units/ml
Procedure: Cytotoxicity studies were performed as described under Experimental procedures. Absorbance values, corrected by subtracting the blank signal of 0.17 OD units, are the means±sd of triplicate samples. Control cells (open circle) received no glucose oxidase. Catalase-treated (solid circle) cells received glucose oxidase (0.019) units/ml) as well as bovine liver catalase (290 units/ml). Other samples received the same dose of glucose oxidase and the indicated concentrations of salen manganese complex.
as §1, with “experiments.” for “experiments. For cell protection assays, HF cells were seeded at a density of about 15,000 cells per cm2 onto 96-well culture plates and allowed to grow to confluence.”

[3] = Peroxidase activity, H2O2-dependent oxidation of ABTS; format: biochemical; details: for peroxidase activity (relative, in words): 10 μM salen manganese complex, 0.2 mM H2O2
Procedure: (§2) Peroxidase activity was assayed by monitoring the hydrogen peroxide-dependent oxidation of 2,2′-azino-bis(3-ethylbenzthiazoline-6) sulfonic acid (ABTS) spectrophotometrically. Standard assay mixtures consisted of 50 mM sodium phosphate, pH 8.1, 0.9% sodium chloride, 0.5 mM ABTS, and H2O2 and salen manganese complex as indicated. Where indicated, 50 mM sodium phosphate buffers of pH 6.0 or pH 7.1 were substituted. Assays were conducted at 27±0.2° C. ABTS oxidation was monitored at 740 or 500 nm to eliminate interference by the salen manganese complexes, many of which absorb in the vicinity of the λmax of oxidized ABTS, and to avoid absorbance values that exceeded the linear range of the spectrophotometer. The amount of oxidized ABTS was estimated using an Δε740 of 20,300 M^−1cm^−1 or an Δε500 of 3400 M^−1cm^−1 calculated based upon the published molar extinction coefficient oat 405 nm (36,800).
Compounds were assayed for SOD as described under Experimental procedures, using cytochrome C as acceptor. The concentration of each compound showing half-maximal activity in this assay is presented. Catalase and peroxidase activities were conducted as described under Experimental Procedures, with 10 μM salen manganese complex. The H2O2 concentration was 10 mM and 0.2 mM in the catalase and peroxidase assays, respectively. Where denoted, “nd” means that the assay was not performed on this compound.
Catalase and peroxidase activities were assayed as described in Example 2. Catalase assays contained 10 μM salen-manganese complex and 10 mM hydrogen peroxide. Peroxidase assays contained 10 μM salen-manganese complex and 0.2 mM hydrogen peroxide. Glucose-glucose oxidase toxicity assays were performed using human dermal fibroblasts as described in Example 2.

[4] = Catalase activity, polarographic oxygen electrode; format: biochemical; details: 10 μM salen manganese complex, 10 mM H2O2
Procedure: Catalase activity was assayed by monitoring the conversion of H2O2 to oxygen using a Clark-type polarographic oxygen electrode. The apparatus consisted of a Mini Clark Style electrode, a 600 μl Oxygen Uptake Chamber, and a Chemical Microsensor system, all obtained from Diamond General Corporation (Ann Arbor, Mich.). The electrode was calibrated by immersion in nitrogen- or air-equilibrated buffers using a Dual Chamber Calibration Cell (Diamond General, Corp.). Catalase reaction mixtures consisted of 50 mM sodium phosphate, pH 8.1,0.9% sodium chloride, and salen manganese complex and H2O2 at the indicated concentrations. The temperature of the water-jacketed reaction chamber, as well as the calibration buffers, was maintained at 25±0.1° C. Data were collected at 1 sec intervals and stored on a MacIntosh II computer using data acquisition hardware and software by Strawberry Tree, Inc. (Sunnyvale, Calif.). Dissolved oxygen concentrations were calculated as described previously (Del Rio et al. (1977) Anal. Biochem. 80: 409) based on a value of 2.5×10^−4 M oxygen for air-saturated buffer at 25° C. Linearity of the dissolved oxygen measurements within the experimental range was continued by determining the amount of oxygen generated from known quantities of H2O2 during exhaustive treatment with bovine liver catalase. Stock solutions of H2O2 were prepared by diluting a commercial 30% H2O2 solution in water and the H2O2 concentrations in these stocks were determined by absorbance at 240 nm, using a molar extinction coefficient of 44 (Stadtman, E R. et al. (1990) Proc. Natl. Acad. Sci. USA 87: 384). […] In the absence of salen manganese complex, H2O2 alone typically produced an early, relatively slow increase in signal. The slope of this increased signal was not proportional to H2O2 concentration (for example in one experiment, 1 and 10 Mm H2O2 yielded apparent rates of 12 and 14 μM oxygen per min, respectively) and may be due to an electrode artifact. […] Where presented, initial rates were calculated by determining the slope of the linear portion of time dependent plots of oxygen generation, usually comprising the first five seconds of the reaction. Unless otherwise indicated, these were corrected by subtracting the rate obtained with H2O2 alone. Where presented, endpoint oxygen generated was calculated from time-dependent plots, such as those shown in FIG. 14, as the difference between the baseline oxygen concentration immediately prior to-substrate addition and the maximal oxygen concentration achieved during the course of the reaction. All reactions subjected to these calculations were run for a sufficient time to ensure that oxygen generation had ceased.
Compounds were assayed for SOD as described under Experimental procedures, using cytochrome C as acceptor. […]

Hippocampal slices = assay: Anoxia in hippocampal slices, EPSP recovery; format: cell-based, Sprague-Dawley rats; details: C7 50 μM
Text: Anoxia in hippocampal slices. […] A glass recording micropipet was positioned in CA1 stratum radiatum to record excitatory postsynaptic potential (EPSPs) generated by electrical stimulation of the Schaffer-commissural pathway by a bipolar stimulation electrode at a frequency of 0.033 Hz. During anoxic episodes, the oxygen supply was replaced with 100% N2 gas. N2 was supplied for 90 seconds following electrical silence after which O2 was reintroduced. Recovery of EPSPs (both slope and amplitude) was recorded for 50 minutes, at which time the final viability of the slices was determined, with viability being defined as the ability of the slice to generate a 3 mV EPSP.

[5] = Peroxidase activity toward t-BHP, ABTS oxidation; format: biochemical; details: 1 mM t-BHP versus same concentration of H2O2
Procedure: as §2
(In comparison, horseradish peroxidase utilized t-BHP with an ABTS oxidation rate that was about 5.4% of the rate with H2O2).

In the case of CC(=O)[O][Mn]1[O]c2ccccc2C=NCCN=Cc2ccccc2[O]1 [Compound C31], the “reduced viability at 80 μM relative to 40 μM together with t-BHP” value [1] is reported as “possible synergistic toxicity with t-BHP” and the “protection against glucose and glucose oxidase (overall, in words)” value [2] is reported as “about equally as effective as C7”.

In the case of COc1cccc2c1[O][Mn]([O]C(C)=O)[O]c1c(cccc1OC)C=NCCN=C2 [Compound C32], the “peroxidase activity (relative, in words)” value [3] is reported as “fastest peroxidases”, the “protection against glucose and glucose oxidase (overall, in words)” value [2] is reported as “more protective than C43” and the “catalase activity, initial rate (relative, in words)” value [4] is reported as “about twice as fast as C7”. The “catalase endpoint: total oxygen generated / turnovers completed before the reaction ceased (relative, in words)” value [4] was “almost twice the amount of oxygen as C7” and the “catalase turnovers before the reaction ceased” value [4] was “about 16 turnovers”.

With COc1cccc2c1[O][Mn]([O]C(C)=O)[O]c1c(cccc1OC)C=NCCCN=C2 [Compound C51] the “peroxidase activity (relative, in words)” value [3] was “reduced catalase and peroxidase activities” and the “catalase activity, initial rate (relative, in words)” value [4] was “reduced catalase and peroxidase activities”.

For “Purified bovine SOD: purified bovine superoxide dismutase”, the “protection against anoxia-induced decrease in synaptic response in CA1 (EPSP slope and amplitude)” value (Hippocampal slices) was “no protection”.

For horseradish peroxidase, the “ABTS oxidation rate with t-BHP as percent of the rate with H2O2” value [5] was “about 5.4%”.

B1: bovine liver catalase: bovine liver catalase enzyme used as reference (protein, UniProt P00432 2-527, looked up)
Catalase: ADNRDPASDQMKHWKEQRAAQKPDVLTTGGGNPVGDKLNSLTVGPRGPLLVQDVVFTDEMAHFDRERIPERVVHAKGAGAFGYFEVTHDITRYSKAKVFEHIGKRTPIAVRFSTVAGESGSADTVRDPRGFAVKFYTEDGNWDLVGNNTPIFFIRDALLFPSFIHSQKRNPQTHLKDPDMVWDFWSLRPESLHQVSFLFSDRGIPDGHRHMNGYGSHTFKLVNANGEAVYCKFHYKTDQGIKNLSVEDAARLAHEDPDYGLRDLFNAIATGNYPSWTLYIQVMTFSEAEIFPFNPFDLTKVWPHGDYPLIPVGKLVLNRNPVNYFAEVEQLAFDPSNMPPGIEPSPDKMLQGRLFAYPDTHRHRLGPNYLQIPVNCPYRARVANYQRDGPMCMMDNQGGAPNYYPNSFSAPEHQPSALEHRTHFSGDVQRFNSANDDNVTQVRTFYLKVLNEEQRKRLCENIAGHLKDAQLFIQKKAVKNFSDVHPEYGSRIQALLDKYNEEKPKNAVHTYVQHGSHLSAREKANL
For B1, the “reduction of the initial rate of ABTS oxidation by C7” value ([3]; 29 units/ml bovine liver catalase added, 10 mM H2O2) was 55%.
